Assay results reported in patent US8211662B2, “Nitroreductase enzymatic substrates” (Biomerieux, priority 2007, dated 2012).

Key:
[1] = system: Escherichia coli NCTC 10418; assay: Nitroreductase detection on Columbia agar, colonies read under UV; type: cell-based; design: key: − = no fluorescence detected; +/− = weak fluorescence; + = medium fluorescence; ++ = strong fluorescence; conditions: Table 3; 100 mg/l in Columbia agar, 24 h 37° C., UV 360-365 nm
Method in brief: (§1)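 Collection strains of bacteria and yeasts grew for 24 h at 37° C. on Columbia agar carrying 100 mg/l (final) substrate. Colonies were then checked by eye under UV illumination at 360-365 nm.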

[2] = system: Serratia marcescens NCTC 10211; assay: as above; type: cell-based; design: key: − = no fluorescence detected; +/− = weak fluorescence; + = medium fluorescence; ++ = strong fluorescence; conditions: Table 3; 100 mg/l in Columbia agar, 24 h 37° C., UV 360-365 nm
Method in brief: as §1

[3] = system: Candida albicans ATCC 90028; assay: as above; type: cell-based; design: key: − = no fluorescence detected; +/− = weak fluorescence; + = medium fluorescence; ++ = strong fluorescence; conditions: Table 3; 100 mg/l in Columbia agar, 24 h 37° C., UV 360-365 nm
Method in brief: as §1

[4] = system: Bacillus subtilis NCTC 9372; assay: as above; type: cell-based; design: key: − = no fluorescence detected; +/− = weak fluorescence; + = medium fluorescence; ++ = strong fluorescence; conditions: Table 3; 100 mg/l in Columbia agar, 24 h 37° C., UV 360-365 nm
Method in brief: as §1

[5] = system: Staphylococcus aureus NCTC 6571; assay: as above; type: cell-based; design: key: − = no fluorescence detected; +/− = weak fluorescence; + = medium fluorescence; ++ = strong fluorescence; conditions: Table 3; 100 mg/l in Columbia agar, 24 h 37° C., UV 360-365 nm
Method in brief: as §1

[6] = system: Enterococcus faecium NCTC 7171; assay: as above; type: cell-based; design: key: − = no fluorescence detected; +/− = weak fluorescence; + = medium fluorescence; ++ = strong fluorescence; conditions: Table 3; 100 mg/l in Columbia agar, 24 h 37° C., UV 360-365 nm
Method in brief: as §1

[7] = system: Enterobacter cloacae NCTC 11936; assay: as above; type: cell-based; design: key: − = no fluorescence detected; +/− = weak fluorescence; + = medium fluorescence; ++ = strong fluorescence; conditions: Table 3; 100 mg/l in Columbia agar, 24 h 37° C., UV 360-365 nm
Method in brief: as §1

[8] = system: Providencia rettgeri NCTC 7475; assay: as above; type: cell-based; design: key: − = no fluorescence detected; +/− = weak fluorescence; + = medium fluorescence; ++ = strong fluorescence; conditions: Table 3; 100 mg/l in Columbia agar, 24 h 37° C., UV 360-365 nm
Method in brief: as §1

[9] = system: Listeria monocytogenes NCTC 11994; assay: as above; type: cell-based; design: key: − = no fluorescence detected; +/− = weak fluorescence; + = medium fluorescence; ++ = strong fluorescence; conditions: Table 3; 100 mg/l in Columbia agar, 24 h 37° C., UV 360-365 nm
Method in brief: as §1

[10] = system: Pseudomonas aeruginosa NCTC 10662; assay: as above; type: cell-based; design: key: − = no fluorescence detected; +/− = weak fluorescence; + = medium fluorescence; ++ = strong fluorescence; conditions: Table 3; 100 mg/l in Columbia agar, 24 h 37° C., UV 360-365 nm
Method in brief: as §1

[11] = system: Burkholderia cepacia 1222; assay: as above; type: cell-based; design: key: − = no fluorescence detected; +/− = weak fluorescence; + = medium fluorescence; ++ = strong fluorescence; conditions: Table 3; 100 mg/l in Columbia agar, 24 h 37° C., UV 360-365 nm
Method in brief: as §1

[12] = system: Enterococcus faecalis NCTC 775; assay: as above; type: cell-based; design: key: − = no fluorescence detected; +/− = weak fluorescence; + = medium fluorescence; ++ = strong fluorescence; conditions: Table 3; 100 mg/l in Columbia agar, 24 h 37° C., UV 360-365 nm
Method in brief: as §1

[13] = system: Streptococcus pyogenes NCTC 8306; assay: as above; type: cell-based; design: key: − = no fluorescence detected; +/− = weak fluorescence; + = medium fluorescence; ++ = strong fluorescence; conditions: Table 3; 100 mg/l in Columbia agar, 24 h 37° C., UV 360-365 nm
Method in brief: as §1

[14] = system: Citrobacter freundii 46262 (wild); assay: as above; type: cell-based; design: key: − = no fluorescence detected; +/− = weak fluorescence; + = medium fluorescence; ++ = strong fluorescence; conditions: Table 3; 100 mg/l in Columbia agar, 24 h 37° C., UV 360-365 nm
Method in brief: as §1

[15] = system: Yersinia enterocolitica NCTC 11176; assay: as above; type: cell-based; design: key: − = no fluorescence detected; +/− = weak fluorescence; + = medium fluorescence; ++ = strong fluorescence; conditions: Table 3; 100 mg/l in Columbia agar, 24 h 37° C., UV 360-365 nm
Method in brief: as §1

[16] = system: Staphylococcus epidermidis NCTC 11047; assay: as above; type: cell-based; design: key: − = no fluorescence detected; +/− = weak fluorescence; + = medium fluorescence; ++ = strong fluorescence; conditions: Table 3; 100 mg/l in Columbia agar, 24 h 37° C., UV 360-365 nm
Method in brief: as §1

[17] = system: MRSA NCTC 11939; assay: as above; type: cell-based, Staphylococcus aureus; design: key: − = no fluorescence detected; +/− = weak fluorescence; + = medium fluorescence; ++ = strong fluorescence; conditions: Table 3; 100 mg/l in Columbia agar, 24 h 37° C., UV 360-365 nm
Method in brief: as §1

[18] = system: Salmonella typhimurium NCTC 74; assay: as above; type: cell-based; design: key to Intensity of fluorescence, Salmonella typhimurium NCTC 74 / F: fluorescence (intensity), Salmonella typhimurium NCTC 74 / Intensity of the fluorescence, Salmonella typhimurium NCTC 74: − = no fluorescence detected; +/− = weak fluorescence; + = medium fluorescence; ++ = strong fluorescence; conditions: Table 3; 100 mg/l in Columbia agar, 24 h 37° C., UV 360-365 nm
Method in brief: as §1

[19] = system: Candida glabrata NCPF 3943; assay: as above; type: cell-based; design: key to Intensity of fluorescence, Candida glabrata NCPF3943 / F: fluorescence (intensity), Candida glabrata NCPF 3943 / Intensity of the fluorescence, Candida glabrata NCPF 3943: − = no fluorescence detected; +/− = weak fluorescence; + = medium fluorescence; ++ = strong fluorescence; conditions: Table 3; 100 mg/l in Columbia agar, 24 h 37° C., UV 360-365 nm
Method in brief: as §1

[20] = system: Morganella morganii 462403 (wild); assay: as above; type: cell-based; design: key to Intensity of fluorescence, Morganella morganii 462403 / F: fluorescence (intensity), Morganella morganii 462403 (wild) / Intensity of the fluorescence, Morganella morganii 462403 (wild): − = no fluorescence detected; +/− = weak fluorescence; + = medium fluorescence; ++ = strong fluorescence; conditions: Table 3; 100 mg/l in Columbia agar, 24 h 37° C., UV 360-365 nm
Method in brief: as §1

O=[N+]([O-])c1ccc(Cl)cc1-c1nc2ccccc2o1 [Substrate 4, 2-(2′-Nitro-5′-chlorophenyl)benzoxazole]
melting point: 130 to 132 °C

O=[N+]([O-])c1cc2c(cc1-c1nc3ccccc3o1)OCO2 [Substrate 5]
F: fluorescence (intensity), Escherichia coli NCTC 10418 [1]: ++ | F: fluorescence (intensity), Serratia marcescens NCTC 10211 [2]: ++ | F: fluorescence (intensity), Candida albicans ATCC 90028 [3]: − | F: fluorescence (intensity), Bacillus subtilis NCTC 9372 [4]: − | F: fluorescence (intensity), Staphylococcus aureus NCTC 6571 [5]: ++ | F: fluorescence (intensity), Enterococcus faecium NCTC 7171 [6]: − | F: fluorescence (intensity), Enterobacter cloacae NCTC 11936 [7]: ++ | F: fluorescence (intensity), Providencia rettgeri NCTC 7475 [8]: + | F: fluorescence (intensity), Listeria monocyto genes NCTC 11994 [9]: + | F: fluorescence (intensity), Pseudomonas aeruginosa NCTC 10662 [10]: + | F: fluorescence (intensity), Burkholderia cepacia 1222 [11]: + | F: fluorescence (intensity), Enterococcus faecails NCTC 775 [12]: − | F: fluorescence (intensity), Streptococcus pyogenes NCTC 8306 [13]: − | F: fluorescence (intensity), Citrobacter freundii 46262 (wild) [14]: ++ | F: fluorescence (intensity), Yersinia enterocolitica NCTC 11176 [15]: − | F: fluorescence (intensity), Staphylococcus epidermidis NCTC 11047 [16]: − | F: fluorescence (intensity), MRSA NCTC 11939 [17]: ++ | F: fluorescence (intensity), Salmonella typhimurium NCTC 74 [18]: ++ | F: fluorescence (intensity), Candida glabrata NCPF 3943 [19]: − | F: fluorescence (intensity), Morganella morganii 462403 (wild) [20]: ++
